# What was measured:
# [1] = after inhalation; general statement, no experiment described; cited from earlier work
# [2] = system: rat model of TBI induced by controlled cortical impact (CCI); assay: Rotarod test, motor function after CCI injury; format: in vivo, Sprague-Dawley (SD) rats; conditions: observed; for E (normalised activity value used to calculate synergy), Rotarod latencies: (X-placebo)/(sham-placebo); for Latency: Rotarod 7-days post-head injury, CBD 20 mg/kg I.P LD + MD x 6, isoflurane 1.5% inhaled LD
# Description: (§1) The effect of cannabidiol (CBD) combined with isoflurane therapy was assessed using a rat model of TBI induced by controlled cortical impact (CCI). Briefly, Sprague-Dawley (SD) rats were anaesthetised with 3% pentobarbital sodium before fixing the head in a stereotaxic frame. After performing a craniotomy, a contusion injury (CCI) was induced with an IMP-3000 TBI Impactor with a diameter of 5.0 mm, a depth of 2.5 mm, dwell time of 100 ms and velocity of 5 m/s. Control rats underwent the same surgical procedure, including craniotomy, without CCI.
# (§2) The randomised groups are detailed in Table 2.
# (§3) Behavioural outcomes following CCI were assessed using the Morris Water Maze (MWM), which assesses cognitive defects after CCI injury (see, e.g., Nunez, 2008, Journal of Visualized Experiments, 897) and the Rotarod test, which assesses changes in motor function (see, e.g., Shiotsuki et al., 2010, Journal of Neuroscience Methods, 189: 180-185).
# (§4) The combinatorial neuroprotective effects of CBD and isoflurane were assessed using a rat controlled cortical impact model of TBI. Briefly, head injury is induced in the rats by first performing a craniotomy to remove a small disc of bone from the skull and then using a pneumatic rod to directly impact the exposed brain. Controlled Cortical Impact (CCI) parameters used in this study were 2.5 mm depth, 5 m/s velocity, 100 ms dwell time. Sham control animals underwent an identical surgical procedure, including craniotomy, but without the CCI injury.
# (§5) Animals were treated with CBD (20 mg/kg) and isoflurane (1.5%) both alone and in combination (Table 2). A loading dose comprising CBD and isoflurane was administered sequentially, with CBD administered 15-30 min post injury and isoflurane administered 1-2 h after injury. Daily maintenance doses of CBD were administered for six consecutive days after administration of the loading dose.
# (§6) To determine the neuroprotective effects associated with the combination of CBD and isoflurane, the MWM, a well-established assay for investigation of spatial learning and memory (Nunez, 2008, supra; D'Hooge et al., 2001, Brain Research Reviews, 36: 60-90), and the Rotarod, a device used to monitor motor coordination (Deacon, 2013, Journal of Visualized Expreiments, e2609-e2609; Shitosuki et al., 2010, supra), were used 7-days post-head injury. The predicted combinatorial effects of CBD and isoflurane were calculated using the Bliss independence principle using the equation: Epred A+B=(EA+EB)−(EAEB)
# (§7) The activity of the combination for this equation was calculated as: (X−placebo)/(sham−placebo)
# [3] = system: rat model of TBI induced by controlled cortical impact (CCI); assay: Morris Water Maze (MWM), spatial learning and memory after CCI injury; format: in vivo, Sprague-Dawley (SD) rats; conditions: observed; for E (normalised activity value used to calculate synergy), MWM proportion of rats that reached the platform / E (normalised activity value used to calculate synergy), MWM instances of rats reaching the platform: (X-placebo)/(sham-placebo); for E (normalised activity value used to calculate synergy), MWM instances of rats reaching the platform: 7-days post-head injury; for Instances of centre of rat corresponding to platform location normalised to the number of rats in group / Number of rats that reached the platform normalised to the total number of rats in each group: MWM 7-days post-head injury; for Instances of centre of rat corresponding to platform location normalised to the number of rats in group: CBD 20 mg/kg I.P LD 15-30 min post-injury + MD x 6, isoflurane 1.5% inhaled LD at 1 hr post-injury; for Number of rats that reached the platform normalised to the total number of rats in each group: CBD 20 mg/kg I.P LD + MD x 6, isoflurane 1.5% inhaled LD
# Description: as §1, §2, §3, §4, §5, §6, §7
# In the MWM a rat is trained to recognise where a platform is located in a water tank over a series of days. It is then released into the tank and monitored for the ability to locate the platform. A lack of ability to locate the platform is indicative of a spatial memory neurocognitive deficit.
# [4] = general statement, no experiment described; cited from earlier work
compound,measurement,setting,value
"C=C(C)[C@@H]1CCC(C)=C[C@H]1c1c(O)cc(CCCCC)cc1O [CBD, cannabidiol]",Time to achieve significant CNS concentrations,[1],within two minutes
same,"E (normalised activity value used to calculate synergy), Rotarod latencies",[2],−0.04
same,Latency,[2],17.60 s
same,"E (normalised activity value used to calculate synergy), MWM proportion of rats that reached the platform",[3],0.21
same,"E (normalised activity value used to calculate synergy), MWM instances of rats reaching the platform",[3],−0.2
same,Instances of centre of rat corresponding to platform location normalised to the number of rats in group,[3],0.4
same,Number of rats that reached the platform normalised to the total number of rats in each group,[3],0.4
"COC(F)(F)C(Cl)Cl [Methoxyflurane, methoxyflurane]",Time to achieve significant CNS concentrations,[1],≤ 2 min
same,Lipid solubility,[4],highly lipid-soluble
FC(F)OC(Cl)C(F)(F)F (stereo not drawn) [isoflurane],"E (normalised activity value used to calculate synergy), Rotarod latencies",[2],−0.09
same,Latency,[2],17.33 s
same,"E (normalised activity value used to calculate synergy), MWM proportion of rats that reached the platform",[3],0.50
same,"E (normalised activity value used to calculate synergy), MWM instances of rats reaching the platform",[3],0.67
same,Instances of centre of rat corresponding to platform location normalised to the number of rats in group,[3],0.83
same,Number of rats that reached the platform normalised to the total number of rats in each group,[3],0.5

# Source: patent US12636294B2, “Compositions and methods for the treatment or prevention of traumatic brain injury” (priority 2019, dated 2026)
